In US11292791B2 (priority 2017, dated 2022) one finds IC50 data, which are given here for 64 compounds.

This assay addresses BRD4 (Homo sapiens (Human), UniProt O60885). Particulars: read-out: BRD4 IC50 (μM gmean).

With `COC(=O)N1c2ccc3c(nc(CCn4cccn4)n3CC(=O)N(C)CC(=O)N(C)C)c2CC[C@@H]1C` [Example 351], the IC50 was 1 to 1000 µM. Turning to `COC(=O)N1c2ccc3c(nc(CCn4cccn4)n3CC(=O)N3CCC(O)CC3)c2CC[C@@H]1C` [Example 352], the IC50 fell in the range of 1 to 1000 µM. Turning to `COC(=O)N1c2ccc3c(nc(CCn4cccn4)n3CC(=O)N3CCC(CO)CC3)c2CC[C@@H]1C` [Example 353], the half-maximal inhibitory concentration (IC50) fell in the range of 1 to 1000 µM. With `COC(=O)N1c2ccc3c(nc(CCn4cccn4)n3CC(=O)NCC(=O)N(C)C)c2CC[C@@H]1C` [Example 354], the IC50 lay within 1 to 1000 µM. `COC(=O)N1c2ccc3c(nc(CCn4cccn4)n3CC(=O)N(C)C3CCOCC3)c2CC[C@@H]1C` [Example 356]: the IC50 fell in the range of 1 to 1000 µM. As for `COC(=O)N1c2ccc3c(nc(CCn4cccn4)n3CC(=O)NCC3CCOCC3)c2CC[C@@H]1C` [Example 357], the half-maximal inhibitory concentration (IC50) was 1 to 1000 µM. As for `COC(=O)N1c2ccc3c(nc(CCn4cccn4)n3CC(=O)NC3CCOCC3)c2CC[C@@H]1C` [Example 358], the IC50 lay within 1 to 1000 µM. As to `COC(=O)N1c2ccc3c(nc(CCn4cccn4)n3CC(=O)N(C)[C@H]3CCOC3)c2CC[C@@H]1C` [Example 359], the IC50 was in the range of 1 to 1000 µM. As for `COC(=O)N1c2ccc3c(nc(CCn4cccn4)n3CC(=O)N3CC[C@H](C(N)=O)C3)c2CC[C@@H]1C` [Example 360], the IC50 lay within 1 to 1000 µM. `COC(=O)N1c2ccc3c(nc(CCn4cccn4)n3CC(=O)N(C)CC(C)(C)O)c2CC[C@@H]1C` [Example 361]: the IC50 is 1 to 1000 µM.

For the compound `COC(=O)N1c2ccc3c(nc(CCn4cccn4)n3CC(=O)NCC3(O)CCC3)c2CC[C@@H]1C` [Example 362], the IC50 was 1 to 1000 µM.

Turning to `COC(=O)N1c2ccc3c(nc(CCn4cccn4)n3CC(=O)NCc3cc(C)no3)c2CC[C@@H]1C` [Example 363], the IC50 is 1 to 1000 µM. For `COC(=O)N1c2ccc3c(nc(CCn4cccn4)n3CC(=O)NCC3(C)COC3)c2CC[C@@H]1C` [Example 364] the value was 1 to 1000 µM.

In the case of `COC(=O)N1c2ccc3c(nc(CCn4cccn4)n3CC(=O)NC3COC3)c2CC[C@@H]1C` [Example 365], the half-maximal inhibitory concentration (IC50) was in the range of 1 to 1000 µM. On to `COC(=O)N1c2ccc3c(nc(CCn4cccn4)n3CC(=O)NCC#N)c2CC[C@@H]1C` [Example 366], for which the IC50 fell in the range of 1 to 1000 µM.

`COC(=O)N1c2ccc3c(nc(CCn4cccn4)n3CC(=O)NCc3ccno3)c2CC[C@@H]1C` [Example 367]: the concentration for half-maximal inhibition (IC50) was in the range of 1 to 1000 µM. For `COC(=O)N1c2ccc3c(nc(CCn4cccn4)n3CC(=O)N3CC[C@@H](NC(C)=O)C3)c2CC[C@@H]1C` [Example 370] the value was 1 to 1000 µM. In the case of `COC(=O)N1c2ccc3c(nc(CCn4cccn4)n3CC(=O)NCc3ncnn3C)c2CC[C@@H]1C` [Example 371], the IC50 fell in the range of 1 to 1000 µM.

`COC(=O)N1c2ccc3c(nc(CCn4ccccc4=O)n3CC(=O)NCc3ncnn3C)c2CC[C@@H]1C` [Example 372]: the IC50 was in the range of 1 to 1000 µM. As to `COC(=O)N1c2ccc3c(nc(CCn4ccccc4=O)n3CC(=O)NCc3ccncn3)c2CC[C@@H]1C` [Example 373], the half-maximal inhibitory concentration (IC50) is 1 to 1000 µM. Turning to `COC(=O)N1c2ccc3c(nc(CCn4ccccc4=O)n3CC(=O)NCCc3ccccn3)c2CC[C@@H]1C` [Example 374], the half-inhibitory concentration (IC50) lay in the range of 1 to 1000 µM. For the compound `COC(=O)N1c2ccc3c(nc(CCn4ccccc4=O)n3CC(=O)NCc3cccnc3)c2CC[C@@H]1C` [Example 375], the IC50 is 1 to 1000 µM.

For the compound `COC(=O)N1c2ccc3c(nc(CCn4ccccc4=O)n3CC(=O)NC[C@H]3CCCO3)c2CC[C@@H]1C` [Example 376], the half-maximal inhibitory concentration (IC50) was 1 to 1000 µM. Regarding `COC(=O)N1c2ccc3c(nc(CCn4ccccc4=O)n3CC(=O)N[C@H]3CC[C@H](CO)CC3)c2CC[C@@H]1C` [Example 377], the IC50 lay in the range of 1 to 1000 µM. Take `COC(=O)N1c2ccc3c(nc(CCn4ccccc4=O)n3CC(=O)N[C@H](C)CO)c2CC[C@@H]1C` [Example 378]: the IC50 is 1 to 1000 µM. In the case of `COC(=O)N1c2ccc3c(nc(CCn4ccccc4=O)n3CC(=O)N(C)CCO)c2CC[C@@H]1C` [Example 379], the IC50 lay within 1 to 1000 µM.

In the case of `COC(=O)N1c2ccc3c(nc(CCn4ccccc4=O)n3CC(=O)N(C)CC(=O)N(C)C)c2CC[C@@H]1C` [Example 380], the half-maximal inhibitory concentration (IC50) fell in the range of 1 to 1000 µM. For the compound `COC(=O)N1c2ccc3c(nc(CCn4ccccc4=O)n3CC(=O)N3CCC(O)CC3)c2CC[C@@H]1C` [Example 381], the IC50 lay within 1 to 1000 µM. Take `COC(=O)N1c2ccc3c(nc(CCn4ccccc4=O)n3CC(=O)NCC(=O)N(C)C)c2CC[C@@H]1C` [Example 382]: the IC50 lay in the range of 1 to 1000 µM.

Regarding `COC(=O)N1c2ccc3c(nc(CCn4ccccc4=O)n3CC(=O)NCC(=O)N3CCCC3)c2CC[C@@H]1C` [Example 383], the IC50 lay within 1 to 1000 µM. Take `COC(=O)N1c2ccc3c(nc(CCn4ccccc4=O)n3CC(=O)N(C)C3CCOCC3)c2CC[C@@H]1C` [Example 384]: the IC50 fell in the range of 1 to 1000 µM. Consider `COC(=O)N1c2ccc3c(nc(CCn4ccccc4=O)n3CC(=O)NCC3CCOCC3)c2CC[C@@H]1C` [Example 385], for which the IC50 was in the range of 1 to 1000 µM. `COC(=O)N1c2ccc3c(nc(CCn4ccccc4=O)n3CC(=O)NC3CCOCC3)c2CC[C@@H]1C` [Example 386]: the IC50 was in the range of 1 to 1000 µM.

As for `COC(=O)N1c2ccc3c(nc(CCn4ccccc4=O)n3CC(=O)N(C)[C@H]3CCOC3)c2CC[C@@H]1C` [Example 387], the 50% inhibitory concentration (IC50) lay within 1 to 1000 µM. Turning to `COC(=O)N1c2ccc3c(nc(CCn4ccccc4=O)n3CC(=O)N3CC[C@H](C(N)=O)C3)c2CC[C@@H]1C` [Example 388], the IC50 lay in the range of 1 to 1000 µM. Regarding `COC(=O)N1c2ccc3c(nc(CCn4ccccc4=O)n3CC(=O)N(C)CC(C)(C)O)c2CC[C@@H]1C` [Example 389], the IC50 lay in the range of 1 to 1000 µM. `COC(=O)N1c2ccc3c(nc(CCn4ccccc4=O)n3CC(=O)NCC3(O)CCC3)c2CC[C@@H]1C` [Example 390]: the IC50 fell in the range of 1 to 1000 µM. With `COC(=O)N1c2ccc3c(nc(CCn4ccccc4=O)n3CC(=O)NCc3cc(C)no3)c2CC[C@@H]1C` [Example 391], the IC50 lay within 1 to 1000 µM. In the case of `COC(=O)N1c2ccc3c(nc(CCn4ccccc4=O)n3CC(=O)NCC3(C)COC3)c2CC[C@@H]1C` [Example 392], the IC50 was in the range of 1 to 1000 µM.

Turning to `COC(=O)N1c2ccc3c(nc(CCn4ccccc4=O)n3CC(=O)NC3COC3)c2CC[C@@H]1C` [Example 393], the 50% inhibitory concentration (IC50) lay in the range of 1 to 1000 µM. Turning to `COC(=O)N1c2ccc3c(nc(CCn4ccccc4=O)n3CC(=O)NCC#N)c2CC[C@@H]1C` [Example 394], the IC50 is 1 to 1000 µM. As to `COC(=O)N1c2ccc3c(nc(CCn4ccccc4=O)n3CC(=O)NCCN3CCNC3=O)c2CC[C@@H]1C` [Example 395], the IC50 lay within 1 to 1000 µM. Take `COC(=O)N1c2ccc3c(nc(CCn4ccccc4=O)n3CC(=O)N3CCC(C#N)CC3)c2CC[C@@H]1C` [Example 396]: the IC50 lay in the range of 1 to 1000 µM. `COC(=O)N1c2ccc3c(nc(CCn4ccccc4=O)n3CC(=O)N3CC[C@@H](NC(C)=O)C3)c2CC[C@@H]1C` [Example 397]: the IC50 fell in the range of 1 to 1000 µM. Take `COC(=O)N1c2ccc3c(nc(CCn4ccccc4=O)n3CC(=O)N3CC[C@H](NC(C)=O)C3)c2CC[C@@H]1C` [Example 398]: the IC50 was in the range of 1 to 1000 µM. Consider `COC(=O)N1c2ccc3c(nc(CCn4ccccc4=O)n3CC(=O)N3CC[C@H](O)C3)c2CC[C@@H]1C` [Example 399], for which the IC50 fell in the range of 1 to 1000 µM. With `COC(=O)N1c2ccc3c(nc(CCn4ccccc4=O)n3CC(=O)N3CCNC(=O)C3)c2CC[C@@H]1C` [Example 400], the 50% inhibitory concentration (IC50) is 1 to 1000 µM.

Turning to `COC(=O)N1c2ccc3c(nc(CCn4ccccc4=O)n3CC(=O)N3CCC(F)(F)C3)c2CC[C@@H]1C` [Example 401], the IC50 was in the range of 1 to 1000 µM. In the case of `COC(=O)N1c2ccc3c(nc(CCn4ccccc4=O)n3CC(=O)N3CCn4ccnc4C3)c2CC[C@@H]1C` [Example 402], the IC50 is 1 to 1000 µM. Consider `COC(=O)N1c2ccc3c(nc(CCn4ccccc4=O)n3CC(=O)Nc3ccn[nH]3)c2CC[C@@H]1C` [Example 403], for which the IC50 was 1 to 1000 µM. With `COC(=O)N1c2ccc3c(nc(CC(C(=O)O)c4ccccc4)n3C3CCCC(OC)C3)c2CC[C@@H]1C` (stereo partly shown) [Example 404], the IC50 was 1 to 1000 µM. For `COC(=O)N1c2ccc3c(nc(C(C)Cc4ccc(F)c(F)c4)n3C3CCCC(C(=O)O)C3)c2CC[C@@H]1C` (stereo partly shown) [Example 405], the IC50 lay within 1 to 1000 µM. Regarding `COC(=O)N1c2ccc3c(nc(CC(C(=O)O)c4ccc(C)c(F)c4)n3C3CCCOC3)c2CC[C@@H]1C` (stereo partly shown) [Example 407], the IC50 fell in the range of 1 to 1000 µM. As for `COC(=O)N1c2ccc3c(nc(C(O)c4ccc(F)c(F)c4)n3C3CCCC(C(=O)O)C3)c2CC[C@@H]1C` (stereo partly shown) [Example 432], the figure is 1 to 1000 µM; as for `COC(=O)N1c2ccc3c(nc(C(C)Cn4cc(Cl)cn4)n3C3CCCC(C(=O)O)C3)c2CC[C@@H]1C` (stereo partly shown) [Example 443], 1 to 1000 µM; as for `COC(=O)N1c2ccc3c(nc(CC(C(=O)O)c4ccc(C)c(F)c4)n3C3CCCOC3)c2CC[C@@H]1C` (stereo partly shown) [Example 446], 1 to 1000 µM. For the compound `COC(=O)N1c2ccc3c(nc(CC(C(=O)O)c4ccc(F)c(F)c4)n3C3CCCC3)c2CC[C@@H]1C` (stereo partly shown) [Example 447], the IC50 was in the range of 1 to 1000 µM. As for `COC(=O)N1c2ccc3c(nc(C(O)c4cc(F)ccc4F)n3C3CCCC(C(=O)O)C3)c2CC[C@@H]1C` (stereo partly shown) [Example 449], the figure is 1 to 1000 µM; as for `COC(=O)N1c2ccc3c(nc(CC(C(=O)O)c4ccccc4)n3C3CCCC(OC)C3)c2CC[C@@H]1C` (stereo partly shown) [Example 455], 1 to 1000 µM. For `COC(=O)N1c2ccc3c(nc(C(C)Cn4ccc(Cl)n4)n3C3CCCC(C(=O)O)C3)c2CC[C@@H]1C` (stereo partly shown) [Example 459] the value was 1 to 1000 µM; for `COC(=O)N1c2ccc3c(nc(C(c4ccc(OC)c(F)c4)C(C)C)n3C3CCC(C(=O)O)CC3)c2CC[C@@H]1C` (stereo partly shown) [Example 466], 1 to 1000 µM. For `COC(=O)N1c2ccc3c(nc(CC(C(=O)O)c4ccc5ccccc5c4)n3C3CCCOC3)c2CC[C@@H]1C` (stereo partly shown) [Example 468] the value was 1 to 1000 µM.

Regarding `COC(=O)N1c2ccc3c(nc(Cc4ccc(C)c(F)c4)n3[C@@H]3CCC[C@@H](C(=O)O)C3)c2CC[C@@H]1C` [Example 471], the IC50 lay in the range of 1 to 1000 µM. Regarding `COC(=O)N1c2ccc3c(nc(CC(C(=O)O)c4ccccc4)n3C3CCCC(OC)C3)c2CC[C@@H]1C` (stereo partly shown) [Example 475], the IC50 lay within 1 to 1000 µM.
